Results on two compounds are retold here after PMC11887051, “Discovery of ONO-2920632 (VU6011887): A Highly Selective and CNS Penetrant TREK-2 (TWIK-Related K+ Channel 2) Preferring Activator In Vivo Tool Compound” (ACS Chemical Neuroscience, 2025).

The subject of data set [1] is Sodium Channel, Site 2. Kind of data set: Eurofins Lead Profiling radioligand binding. The arrangement: species or system Rat. To be noted: title: 30 μM.
Data set [2] deals with T1, TREK-2 (Homo sapiens, UniProt P57789).
T1 sequence (P57789 1-538): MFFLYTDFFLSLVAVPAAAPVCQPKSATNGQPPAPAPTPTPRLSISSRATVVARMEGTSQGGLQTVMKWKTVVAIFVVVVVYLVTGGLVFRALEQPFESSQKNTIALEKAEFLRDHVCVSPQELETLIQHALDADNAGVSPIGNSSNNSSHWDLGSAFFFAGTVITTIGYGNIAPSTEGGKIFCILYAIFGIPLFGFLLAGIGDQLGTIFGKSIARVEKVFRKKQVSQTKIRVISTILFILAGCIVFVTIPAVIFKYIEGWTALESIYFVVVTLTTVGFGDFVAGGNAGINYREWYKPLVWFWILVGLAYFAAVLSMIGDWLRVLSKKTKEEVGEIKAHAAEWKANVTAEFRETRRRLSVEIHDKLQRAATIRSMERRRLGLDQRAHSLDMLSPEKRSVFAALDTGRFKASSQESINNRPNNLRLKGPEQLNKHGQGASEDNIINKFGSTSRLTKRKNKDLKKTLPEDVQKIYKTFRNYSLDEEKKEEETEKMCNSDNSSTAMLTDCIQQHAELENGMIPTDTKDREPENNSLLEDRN
Kind of data set: human 86Rb flux K2P selectivity panel. Type of data set: cell-based.

Data set [3] addresses Histamine H2 (Homo sapiens, UniProt P25021). Kind of data set: Eurofins Lead Profiling radioligand binding. To be noted: title: 30 μM.
The target in data set [4] is Histamine H3 (Homo sapiens, UniProt Q9Y5N1). Put plainly: Eurofins Lead Profiling radioligand binding. The following applies: title: 30 μM.
Data set [5] in a line: rat PO PK study. Type of data set: in vivo. The following applies: male, Sprague-Dawley, 3 mg/kg PO. Here is the method: Plasma and brain tissue samples originating from in vivo studies were analyzed by electrospray ionization using an AB Sciex Q-TRAP 5500 (Foster City, CA) that was coupled to a Shimadzu LC-20AD pump (Columbia, MD) and a Leap Technologies CTC PAL auto-sampler (Carrboro, NC). Analytes were separated by gradient elution using a C18 column (3 x 50 mm, 3 mm; Fortis Technologies Ltd, Cheshire, UK) that was thermostated at 40 °C. HPLC mobile phase A was 0.1% formic acid in water (pH unadjusted); mobile phase B was 0.1% formic acid in acetonitrile (pH […]
min, with an isocratic hold for 0.5 min, before transitioning to 10% B over 0.05 min. The column was re-equilibrated (1 min) before the next sample injection. The total run time was 2.55 min, and the HPLC flow rate was 0.5 ml/min. The source temperature was set at 500 °C, and mass spectral analyses were performed using a Turbo-Ion spray source in positive ionization mode (5.0-kV spray voltage) and using multiple-reaction monitoring of transitions specific for the analytes. All data were analyzed using AB Sciex Analyst 1.5.1 software.
Brain plasma concentration ratio (Kp) was calculated by dividing brain concentration by plasma concentration for each animal. Unbound brain to unbound plasma concentration ratio (Kp,uu) is calculated using the following formula: Kp,uu = (Brain ng/g x brain fu)/(plasma ng/ml x plasma fu).
For determination of the plasma concentration-time profile, compounds were formulated in methyl cellulose and administered as a 3 mg/kg PO dose to male C57BL/6 mouse or SD rat (n = 2). For the same determination, compounds were formulated in HP-β-CD and administered as a 0.1 mg/kg IV dose to male beagle dog (n = 2).
Plasma samples originating from in vivo studies were analyzed by electrospray ionization using a Q-TRAP 5500 (AB Sciex) that was coupled to a Prominence UFLC XR (Shimadzu Corporation).
Analytes were separated by gradient elution using a Shim-pack XR-ODS II (2 x 75 mm, 2.2μm, Shimadzu Corporation) that was thermostated at 40 °C. HPLC mobile phase A was 5 mM ammonium acetate containing 0.2% formic acid in water (pH unadjusted); mobile phase B was […]
hold for 1.5 min, before transitioning to 10% B over 0.1 min. The column was re-equilibrated (0.9 min) before the next sample injection. The total run time was 4.0 min, and the HPLC flow rate was 0.5 ml/min. The source temperature was set at 600 °C, and mass spectral analyses were performed using a Turbo-Ion spray source in positive ionization mode and using multiple-reaction

The target in data set [6] is Dopamine D4.2 (Homo sapiens, UniProt P21917, DEL265-296). Put plainly: Eurofins Lead Profiling radioligand binding. To be noted: title: 30 μM.
In data set [7] the test system is Thyroid Hormone. Kind of data set: Eurofins Lead Profiling radioligand binding. The following applies: title: 30 μM. Also noted: species or system Rat.
Data set [8] relates to Purinergic P2X. Kind of data set: Eurofins Lead Profiling radioligand binding. The arrangement: species or system Rabbit. To be noted: title: 30 μM.
Data set [9] can be described thus: mouse brain homogenate binding. Type of data set: in vitro ADME. The following applies: read-out: mouse brain fu.
The target of data set [10] is Nicotinic Acetylcholine α1, Bungarotoxin (Homo sapiens, UniProt P02708+P07510+Q07001). Kind of data set: Eurofins Lead Profiling radioligand binding. The following applies: read-out: % Inhibition at 10 µM.
Data set [11] has as its target Bradykinin B2 (Homo sapiens, UniProt P30411). Put plainly: Eurofins Lead Profiling radioligand binding. To be noted: title: 30 μM.
In data set [12] the test system is Potassium Channel [SKCA]. Put plainly: Eurofins Lead Profiling radioligand binding. Also noted: species or system Rat. The following applies: title: 30 μM.
Data set [13] concerns the target Muscarinic M1 (Homo sapiens, UniProt P11229). Put plainly: Eurofins Lead Profiling radioligand binding. The following applies: title: 30 μM.
Data set [14] addresses Adrenergic β1 (Homo sapiens, UniProt P08588). Kind of data set: Eurofins Lead Profiling radioligand binding. To be noted: title: 30 μM.
Data set [15] has as its target Transporter, Dopamine (DAT) (Homo sapiens, UniProt Q01959). Kind of data set: Eurofins Lead Profiling radioligand binding. To be noted: title: 30 μM.
For data set [16], the target named is Tachykinin NK1 (Homo sapiens, UniProt P25103). Put plainly: Eurofins Lead Profiling radioligand binding. The following applies: title: 30 μM.
The test system of data set [17] is GABAA, Muscimol, Central. Kind of data set: Eurofins Lead Profiling radioligand binding. The following applies: title: 30 μM. The arrangement: species or system Rat.
Data set [18] relates to 72 GPCRs, ion channels and transporters. Kind of data set: Eurofins Lead Profiling panel (whole panel). Type of data set: binding. The following applies: for ancillary pharmacology panel result: 72 GPCRs, ion channels and transporters.
Data set [19] deals with Glucocorticoid (Homo sapiens, UniProt P04150). Kind of data set: Eurofins Lead Profiling radioligand binding. The following applies: title: 30 μM.
In data set [20] the target is T2, hERG (Homo sapiens, UniProt Q12809).
T2 construct: expressed in transfected cells; host or cells: HEK293
Put plainly: hERG thallium flux assay. To be noted: Tl+ flux assay. Type of data set: cell-based.

pIC50: −log10 of the molar value.

Chain of Transporter, Dopamine (DAT) (Q01959 whole entry): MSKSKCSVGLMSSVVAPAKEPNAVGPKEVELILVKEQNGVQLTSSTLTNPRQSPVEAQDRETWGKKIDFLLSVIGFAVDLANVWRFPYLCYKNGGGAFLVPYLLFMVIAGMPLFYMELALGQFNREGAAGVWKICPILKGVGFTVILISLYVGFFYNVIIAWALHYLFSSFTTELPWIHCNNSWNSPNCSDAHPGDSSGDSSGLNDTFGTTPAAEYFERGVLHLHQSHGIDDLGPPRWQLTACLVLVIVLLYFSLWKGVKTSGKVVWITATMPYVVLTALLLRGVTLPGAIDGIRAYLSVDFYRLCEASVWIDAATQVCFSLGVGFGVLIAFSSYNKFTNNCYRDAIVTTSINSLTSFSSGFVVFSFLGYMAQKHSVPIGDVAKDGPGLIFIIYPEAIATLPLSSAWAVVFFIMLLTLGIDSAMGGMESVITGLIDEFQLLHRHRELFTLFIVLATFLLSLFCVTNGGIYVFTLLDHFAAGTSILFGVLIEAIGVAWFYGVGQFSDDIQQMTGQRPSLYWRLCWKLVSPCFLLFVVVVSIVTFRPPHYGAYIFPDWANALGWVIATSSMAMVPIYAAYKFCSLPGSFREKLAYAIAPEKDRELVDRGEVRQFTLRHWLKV
Chain of Tachykinin NK1 (P25103 whole entry): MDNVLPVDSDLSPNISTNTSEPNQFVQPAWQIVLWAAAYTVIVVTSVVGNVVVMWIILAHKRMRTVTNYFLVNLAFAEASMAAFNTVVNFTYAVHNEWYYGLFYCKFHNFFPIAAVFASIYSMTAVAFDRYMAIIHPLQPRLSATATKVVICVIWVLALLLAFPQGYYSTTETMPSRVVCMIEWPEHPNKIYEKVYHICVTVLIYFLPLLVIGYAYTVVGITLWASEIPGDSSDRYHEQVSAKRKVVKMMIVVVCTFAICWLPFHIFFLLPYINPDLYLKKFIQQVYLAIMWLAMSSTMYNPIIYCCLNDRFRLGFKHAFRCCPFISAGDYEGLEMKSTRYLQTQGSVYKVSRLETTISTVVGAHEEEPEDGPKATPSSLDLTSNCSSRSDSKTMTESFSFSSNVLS
Chain of Muscarinic M1 (P11229 whole entry): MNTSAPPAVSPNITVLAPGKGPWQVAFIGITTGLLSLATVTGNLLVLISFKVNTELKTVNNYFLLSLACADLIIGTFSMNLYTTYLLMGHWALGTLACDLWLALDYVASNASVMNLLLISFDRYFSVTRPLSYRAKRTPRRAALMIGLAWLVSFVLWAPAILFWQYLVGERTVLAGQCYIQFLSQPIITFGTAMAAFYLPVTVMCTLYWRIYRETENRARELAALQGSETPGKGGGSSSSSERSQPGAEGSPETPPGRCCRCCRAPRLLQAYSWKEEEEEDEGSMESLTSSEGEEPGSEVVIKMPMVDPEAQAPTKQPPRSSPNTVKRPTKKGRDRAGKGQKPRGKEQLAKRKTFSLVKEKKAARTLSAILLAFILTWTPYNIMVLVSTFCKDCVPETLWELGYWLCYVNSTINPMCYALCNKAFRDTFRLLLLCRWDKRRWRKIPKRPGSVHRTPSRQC
Chain of Glucocorticoid (P04150 whole entry): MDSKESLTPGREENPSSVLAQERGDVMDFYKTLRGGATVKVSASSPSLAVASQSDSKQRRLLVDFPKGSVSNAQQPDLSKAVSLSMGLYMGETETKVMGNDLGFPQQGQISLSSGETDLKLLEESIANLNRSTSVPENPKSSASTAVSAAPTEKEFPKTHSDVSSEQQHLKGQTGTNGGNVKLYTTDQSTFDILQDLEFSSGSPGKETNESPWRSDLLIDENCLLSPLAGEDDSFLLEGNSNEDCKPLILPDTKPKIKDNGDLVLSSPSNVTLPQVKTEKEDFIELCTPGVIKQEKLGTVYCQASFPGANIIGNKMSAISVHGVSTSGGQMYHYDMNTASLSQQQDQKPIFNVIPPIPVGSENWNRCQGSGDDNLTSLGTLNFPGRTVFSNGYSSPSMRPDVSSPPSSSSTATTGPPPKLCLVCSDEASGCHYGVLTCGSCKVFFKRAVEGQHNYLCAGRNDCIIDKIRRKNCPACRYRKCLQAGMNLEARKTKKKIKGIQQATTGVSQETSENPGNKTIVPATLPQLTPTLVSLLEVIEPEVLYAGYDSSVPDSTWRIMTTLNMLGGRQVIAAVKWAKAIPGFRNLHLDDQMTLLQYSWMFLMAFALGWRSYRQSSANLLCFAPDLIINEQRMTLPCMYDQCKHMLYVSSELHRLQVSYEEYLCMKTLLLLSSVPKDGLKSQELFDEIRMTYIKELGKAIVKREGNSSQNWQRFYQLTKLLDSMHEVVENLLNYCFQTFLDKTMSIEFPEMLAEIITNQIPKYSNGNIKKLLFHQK
Chain of Histamine H2 (P25021 whole entry): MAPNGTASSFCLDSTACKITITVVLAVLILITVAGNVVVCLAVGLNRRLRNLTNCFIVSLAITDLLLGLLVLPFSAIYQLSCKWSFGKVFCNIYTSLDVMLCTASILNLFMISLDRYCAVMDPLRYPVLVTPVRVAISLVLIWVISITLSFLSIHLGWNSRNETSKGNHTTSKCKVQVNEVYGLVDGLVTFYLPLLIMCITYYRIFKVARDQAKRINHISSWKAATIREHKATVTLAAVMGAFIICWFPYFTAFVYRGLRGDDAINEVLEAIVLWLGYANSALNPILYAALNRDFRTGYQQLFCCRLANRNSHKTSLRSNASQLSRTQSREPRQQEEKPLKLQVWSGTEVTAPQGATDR
T2 sequence (Q12809 whole entry): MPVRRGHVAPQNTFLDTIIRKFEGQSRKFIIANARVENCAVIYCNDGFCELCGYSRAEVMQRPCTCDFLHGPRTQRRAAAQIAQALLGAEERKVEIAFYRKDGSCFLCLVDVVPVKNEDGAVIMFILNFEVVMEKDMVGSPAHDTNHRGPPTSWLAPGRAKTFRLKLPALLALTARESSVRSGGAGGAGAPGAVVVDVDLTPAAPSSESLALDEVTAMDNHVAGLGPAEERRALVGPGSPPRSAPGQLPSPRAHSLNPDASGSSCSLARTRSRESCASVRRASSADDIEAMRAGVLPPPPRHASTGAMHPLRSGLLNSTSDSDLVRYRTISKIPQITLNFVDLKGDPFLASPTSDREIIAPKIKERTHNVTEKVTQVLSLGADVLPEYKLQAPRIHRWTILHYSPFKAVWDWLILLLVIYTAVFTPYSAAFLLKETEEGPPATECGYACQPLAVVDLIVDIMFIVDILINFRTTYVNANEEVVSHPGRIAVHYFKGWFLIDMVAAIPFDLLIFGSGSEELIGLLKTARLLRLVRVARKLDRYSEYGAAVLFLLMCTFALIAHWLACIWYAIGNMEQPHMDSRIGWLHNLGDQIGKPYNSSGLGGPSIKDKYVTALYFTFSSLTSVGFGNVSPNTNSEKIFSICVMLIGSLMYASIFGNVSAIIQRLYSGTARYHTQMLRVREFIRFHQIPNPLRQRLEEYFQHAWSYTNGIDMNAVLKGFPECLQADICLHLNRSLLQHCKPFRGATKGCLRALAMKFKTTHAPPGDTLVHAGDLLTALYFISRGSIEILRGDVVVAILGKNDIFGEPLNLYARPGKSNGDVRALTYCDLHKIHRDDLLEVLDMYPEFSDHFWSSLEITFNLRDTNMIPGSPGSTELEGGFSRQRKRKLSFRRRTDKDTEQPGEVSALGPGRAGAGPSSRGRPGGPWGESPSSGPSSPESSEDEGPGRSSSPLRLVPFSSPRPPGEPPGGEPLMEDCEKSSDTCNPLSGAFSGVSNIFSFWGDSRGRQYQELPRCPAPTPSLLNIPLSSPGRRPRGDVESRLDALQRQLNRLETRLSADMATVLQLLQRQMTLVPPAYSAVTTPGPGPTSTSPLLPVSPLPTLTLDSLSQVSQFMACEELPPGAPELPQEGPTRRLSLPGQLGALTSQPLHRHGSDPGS
Chain of Dopamine D4.2 (P21917 with tags, fused parts or gaps DEL265-296): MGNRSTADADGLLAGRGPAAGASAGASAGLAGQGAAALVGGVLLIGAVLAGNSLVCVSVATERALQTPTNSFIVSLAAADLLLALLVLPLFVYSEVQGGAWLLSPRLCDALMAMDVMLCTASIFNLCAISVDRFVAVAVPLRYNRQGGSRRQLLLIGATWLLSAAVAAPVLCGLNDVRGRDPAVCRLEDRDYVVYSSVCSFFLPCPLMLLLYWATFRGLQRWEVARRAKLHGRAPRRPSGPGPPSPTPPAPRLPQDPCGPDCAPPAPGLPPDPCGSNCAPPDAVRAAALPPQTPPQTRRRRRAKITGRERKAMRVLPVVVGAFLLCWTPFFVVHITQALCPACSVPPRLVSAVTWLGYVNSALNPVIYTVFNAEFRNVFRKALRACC
Chain of Bradykinin B2 (P30411 whole entry): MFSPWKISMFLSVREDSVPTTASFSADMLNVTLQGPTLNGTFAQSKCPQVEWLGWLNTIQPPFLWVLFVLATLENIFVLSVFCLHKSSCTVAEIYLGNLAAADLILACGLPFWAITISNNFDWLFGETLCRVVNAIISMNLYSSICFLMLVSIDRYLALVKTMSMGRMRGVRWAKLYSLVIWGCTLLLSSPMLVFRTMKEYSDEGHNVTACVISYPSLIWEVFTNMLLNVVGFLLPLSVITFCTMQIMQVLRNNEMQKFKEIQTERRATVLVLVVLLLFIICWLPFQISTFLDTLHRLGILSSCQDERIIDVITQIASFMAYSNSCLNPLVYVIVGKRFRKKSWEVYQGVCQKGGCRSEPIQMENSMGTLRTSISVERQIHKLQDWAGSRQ
Chain of Histamine H3 (Q9Y5N1 whole entry): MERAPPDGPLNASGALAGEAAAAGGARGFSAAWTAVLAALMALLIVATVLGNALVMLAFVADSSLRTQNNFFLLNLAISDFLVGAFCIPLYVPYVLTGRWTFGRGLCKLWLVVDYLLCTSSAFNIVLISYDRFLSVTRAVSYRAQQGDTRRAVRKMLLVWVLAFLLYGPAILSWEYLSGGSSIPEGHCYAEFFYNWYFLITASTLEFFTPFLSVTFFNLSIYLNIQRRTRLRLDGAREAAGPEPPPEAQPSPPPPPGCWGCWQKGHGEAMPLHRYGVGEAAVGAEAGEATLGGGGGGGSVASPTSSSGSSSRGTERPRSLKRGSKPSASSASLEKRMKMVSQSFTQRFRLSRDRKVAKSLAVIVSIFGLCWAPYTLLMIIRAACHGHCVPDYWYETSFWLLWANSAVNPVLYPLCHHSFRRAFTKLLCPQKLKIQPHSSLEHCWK

For `O=C(NCc1ccc(OC(F)(F)F)cc1F)c1ccc2ncnn2c1` [Compound 19b], the “% Inhibition at 10 µM” value in [1] is listed as 15%; in data set [7] it was 9%; in data set [8], 22%; in data set [12], 4%; in data set [17], -1%. Also, the “TREK-2 preference in 86Rb flux assay” value in data set [2] (TREK-2 over TREK-1) is on record as around 46 fold. In addition, in data set [2] (data is not shown), the “activity at TREK-2 in 86Rb flux panel” value is given as “submicromolar activity”. Further, the inhibition was -20% in data set [3]; 1% in [4]; 15% in data set [6]; 1% in data set [13]; 9% in [14]; 14% in [15]. Further, the figures for the inhibition in data set [16] and in data set [19] were 2% and 7%, respectively. Also, in [5] (brain, 2 h, read-out: total brain concentration), the concentration at 2 h stood at 2680 nM. Besides, in [5] (brain, 24 h, read-out: total brain concentration), the concentration at 24 h came to 2890 nM. The same compound came in with a Cmax in [5] (plasma) of 10.3 µM. For the same compound, in data set [5] (plasma), the Tmax stood at 7 h. The half-life in data set [5] (plasma) was above 1440 min. In data set [9], the fraction unbound at 6 h, 1 µM was 0.28. In addition, the inhibition at 10 µM in data set [10] turned out to be 20%; in data set [11], 5%. Moreover, the “displacement of any radioligand in the panel” value in data set [18] (30 μM, 72 targets) is reported as at most 50%. The “ancillary pharmacology panel result” value in data set [18] is “clean ancillary pharmacology”; in data set [18] (listed as ONO-2920632), “no significant activity”.
`O=C(NCc1ccc(OC(F)(F)F)cc1Cl)c1ccc2nncn2c1` [Compound 20] gave a pIC50 in [20] below 4.52.
